Earlier results, collected in US8609693B2, “Methods of administration of thrombopoietin agonist compounds” (GlaxoSmithKline LLC, priority 2009, dated 2013).

System: platelet counts
Settings: 50 mg, 75 mg and 100 mg dose; patients receiving carboplatin/paclitaxel

SMILES: CC1=NN(c2ccc(C)c(C)c2)C(=O)/C1=N\Nc1cccc(-c2cccc(C(=O)O)c2)c1O [Compound B, 3′-[(2Z)-[1-(3,4-dimethylphenyl)-1,5-dihydro-3-methyl-5-oxo-4H-pyrazol-4-ylidene]hydrazino]-2′-hydroxy-[1,1′-biphenyl]-3-carboxylic acid]
- target platelet improvement counts: not meet the target platelet improvement counts
